{"source": "ChEMBL document CHEMBL6109139", "about": "“Rational Design of the First Dual Agonist at Trace Amine-Associated Receptor 1 and 5-HT2C Receptors Based on Binding Pocket Similarity for the Treatment of Schizophrenia and Alzheimer's Disease-Related Psychosis” (J Med Chem, 2025)", "key": {"[1]": {"test": "Cardiotoxicity in conscious cynomolgus monkey assessed as waveform abnormalities in leas-II ECG at 3.125 to 12.5 mg/kg, IG measured within 24 hrs by EcgAUTO analysis", "format": "toxicity, organism-based, Macaca fascicularis", "conditions": "in vivo, po, dose 3.125-12.5 mg/kg"}, "[2]": {"target": "Muscarinic acetylcholine receptor M2 (Homo sapiens) (UniProt P08172)", "sequence (P08172 whole entry)": "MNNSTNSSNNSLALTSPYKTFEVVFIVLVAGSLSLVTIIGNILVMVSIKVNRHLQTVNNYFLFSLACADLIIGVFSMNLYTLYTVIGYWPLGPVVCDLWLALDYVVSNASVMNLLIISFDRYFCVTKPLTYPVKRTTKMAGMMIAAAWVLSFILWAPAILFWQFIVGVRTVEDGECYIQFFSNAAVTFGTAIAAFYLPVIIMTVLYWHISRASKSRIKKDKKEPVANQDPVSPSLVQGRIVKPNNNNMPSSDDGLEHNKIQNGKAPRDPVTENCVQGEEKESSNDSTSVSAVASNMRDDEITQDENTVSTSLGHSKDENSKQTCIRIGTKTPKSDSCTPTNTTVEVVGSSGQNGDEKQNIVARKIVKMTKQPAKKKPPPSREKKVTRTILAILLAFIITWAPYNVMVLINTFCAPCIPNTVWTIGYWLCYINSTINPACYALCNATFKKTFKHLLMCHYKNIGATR", "test": "Binding affinity to M2 receptor (unknown origin) at 10 uM by radioligand binding assay relative to control"}, "Cytochrome P450 2C9": {"target": "Cytochrome P450 2C9 (Homo sapiens, UniProt P11712)", "sequence (P11712 whole entry)": "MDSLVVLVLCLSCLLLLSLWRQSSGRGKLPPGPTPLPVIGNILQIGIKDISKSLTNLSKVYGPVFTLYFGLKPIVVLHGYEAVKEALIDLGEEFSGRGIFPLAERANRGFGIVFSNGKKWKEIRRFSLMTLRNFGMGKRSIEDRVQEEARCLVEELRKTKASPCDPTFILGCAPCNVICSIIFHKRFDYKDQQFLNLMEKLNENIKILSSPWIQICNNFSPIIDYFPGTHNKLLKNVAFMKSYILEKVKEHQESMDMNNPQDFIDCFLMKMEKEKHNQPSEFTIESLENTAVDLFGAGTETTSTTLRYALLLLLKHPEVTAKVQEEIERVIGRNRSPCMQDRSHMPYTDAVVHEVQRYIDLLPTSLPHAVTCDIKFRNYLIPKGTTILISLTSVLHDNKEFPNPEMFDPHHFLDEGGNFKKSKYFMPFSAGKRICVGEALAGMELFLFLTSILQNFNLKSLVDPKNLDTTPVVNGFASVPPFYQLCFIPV", "test": "Inhibition of CYP2C9 in human liver microsomes in presence of NADPH by LC-MS/MS analysis", "format": "ADME, Microsome"}, "[3]": {"test": "Toxicity in Sprague-Dawley rat assessed as animal death 2.5 to 7.5 mg/kg, po administered once daily for 4 weeks", "format": "organism-based", "conditions": "in vivo, 672 h, dose 2.5-7.5 mg/kg"}, "[4]": {"test": "Toxicity in male Sprague-Dawley rat assessed as irritability at 2.5 mg/kg, po administered once daily for 4 weeks and measured after 4 weeks", "format": "organism-based", "conditions": "in vivo, 1344 h, time 8 weeks"}, "[5]": {"test": "Toxicity in female Sprague-Dawley rat assessed as suppression of food consumption at 7.5 mg/kg, po administered once daily for 4 weeks and measured after 4 weeks", "format": "organism-based", "conditions": "in vivo, 1344 h, time 8 weeks"}, "[6]": {"target": "Glutamate [NMDA] receptor (Homo sapiens) (UniProt Q05586+Q12879+Q13224+O15399+O60391+Q14957+Q8TCU5)", "test": "Binding affinity to NMDA receptor (unknown origin) at 10 uM by radioligand binding assay relative to control", "format": "protein-complex assay"}, "[7]": {"test": "Toxicity in male Beagle dog assessed as somnolence at 2.5 mg/kg, IG administered once daily for 4 weeks", "format": "organism-based, Canis lupus familiaris", "conditions": "in vivo, po, 672 h"}, "[8]": {"test": "Toxicity in female Beagle dog assessed as somnolence at 2.5 mg/kg, IG administered once daily for 4 weeks", "format": "organism-based, Canis lupus familiaris", "conditions": "in vivo, po, 672 h"}, "[9]": {"target": "5-hydroxytryptamine receptor 2C (Rattus norvegicus, UniProt P08909)", "sequence (P08909 whole entry)": "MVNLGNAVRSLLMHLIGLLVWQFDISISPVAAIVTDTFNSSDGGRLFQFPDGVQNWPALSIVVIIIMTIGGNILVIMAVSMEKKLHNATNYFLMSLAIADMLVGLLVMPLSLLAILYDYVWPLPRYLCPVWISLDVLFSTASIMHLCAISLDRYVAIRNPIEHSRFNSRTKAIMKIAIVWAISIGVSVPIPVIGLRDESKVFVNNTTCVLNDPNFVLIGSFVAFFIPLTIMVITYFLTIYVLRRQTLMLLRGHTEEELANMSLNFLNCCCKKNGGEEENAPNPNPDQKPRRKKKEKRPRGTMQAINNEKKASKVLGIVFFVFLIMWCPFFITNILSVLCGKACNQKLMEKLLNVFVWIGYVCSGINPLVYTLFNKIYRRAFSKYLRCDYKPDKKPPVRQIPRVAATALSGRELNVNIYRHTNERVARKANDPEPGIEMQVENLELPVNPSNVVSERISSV", "test": "Agonist activity at rat 5-HT2CR", "format": "functional"}, "[10]": {"target": "T1, 5-hydroxytryptamine receptor 2C (Homo sapiens) (UniProt P28335)", "T1 sequence (whole entry)": "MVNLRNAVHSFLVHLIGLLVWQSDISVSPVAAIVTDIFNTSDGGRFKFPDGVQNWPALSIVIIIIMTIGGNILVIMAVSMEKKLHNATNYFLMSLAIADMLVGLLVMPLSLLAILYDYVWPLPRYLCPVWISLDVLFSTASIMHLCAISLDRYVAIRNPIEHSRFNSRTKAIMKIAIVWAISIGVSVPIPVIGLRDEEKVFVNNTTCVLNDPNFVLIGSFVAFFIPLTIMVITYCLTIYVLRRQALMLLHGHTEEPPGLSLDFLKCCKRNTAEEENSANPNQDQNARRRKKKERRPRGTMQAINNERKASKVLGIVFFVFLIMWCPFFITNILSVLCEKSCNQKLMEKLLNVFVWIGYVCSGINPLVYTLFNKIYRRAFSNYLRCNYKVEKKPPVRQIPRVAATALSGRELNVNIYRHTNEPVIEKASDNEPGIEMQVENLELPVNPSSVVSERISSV", "test": "Agonist activity at recombinant human 5-HT2CR expressed in HEK293 cells incubated for 2 hrs by measuring maximum efficacy by FLIPR calcium assay relative to control", "format": "functional, cell-based", "conditions": "filed as agonist"}, "[11]": {"target": "Acetylcholinesterase (Homo sapiens) (UniProt P22303)", "sequence (P22303 whole entry)": "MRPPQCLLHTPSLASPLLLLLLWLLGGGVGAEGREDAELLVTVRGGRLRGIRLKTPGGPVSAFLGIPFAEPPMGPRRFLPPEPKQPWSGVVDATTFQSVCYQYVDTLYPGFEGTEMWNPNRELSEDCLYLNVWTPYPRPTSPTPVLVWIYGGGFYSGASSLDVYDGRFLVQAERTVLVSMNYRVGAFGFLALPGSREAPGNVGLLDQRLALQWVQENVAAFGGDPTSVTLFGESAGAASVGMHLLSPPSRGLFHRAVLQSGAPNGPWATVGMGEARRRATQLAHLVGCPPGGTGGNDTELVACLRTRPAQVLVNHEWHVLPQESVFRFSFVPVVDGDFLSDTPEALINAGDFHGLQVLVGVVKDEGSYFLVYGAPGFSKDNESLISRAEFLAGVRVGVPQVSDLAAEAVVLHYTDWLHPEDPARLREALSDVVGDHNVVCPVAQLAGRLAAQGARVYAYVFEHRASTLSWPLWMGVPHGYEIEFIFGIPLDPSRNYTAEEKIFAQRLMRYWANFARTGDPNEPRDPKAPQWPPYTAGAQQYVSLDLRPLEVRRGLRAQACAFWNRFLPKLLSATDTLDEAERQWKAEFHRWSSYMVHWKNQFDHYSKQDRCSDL", "test": "Binding affinity to ACHE (unknown origin) at 10 uM by radioligand binding assay relative to control"}, "[12]": {"test": "Toxicity in female Sprague-Dawley rat assessed as corneal epithelial degeneration at 2.5 to 7.5 mg/kg, po administered once daily for 4 weeks and measured after 4 weeks", "format": "organism-based", "conditions": "in vivo, 1344 h, dose 2.5-7.5 mg/kg, time 8 weeks"}, "[13]": {"test": "Toxicity in male Sprague-Dawley rat assessed as minimal corneal neovascularization at 2.5 to 7.5 mg/kg, po administered once daily for 4 weeks and measured after 4 weeks", "format": "organism-based", "conditions": "in vivo, 1344 h, dose 2.5-7.5 mg/kg, time 8 weeks"}, "Mus musculus": {"species_on_record": "Mus musculus", "test": "Antipsychotic activity against MK-801 induced hyperlocomotion in male C57BL/6J mouse model assessed as effective dose", "format": "functional"}}, "data": [{"smiles": "c1cc2c(s1)[C@@H]1CNCCN1CC2", "values": [{"measurement": "Activity", "setting": "[1]", "result": "Non-toxic"}, {"measurement": "Activity", "setting": "[2]", "result": 28.9, "unit": "%"}, {"measurement": "IC50", "setting": "Cytochrome P450 2C9", "result": "> 50000", "unit": "nM"}, {"measurement": "Activity", "setting": "[3]", "result": "Non-toxic"}, {"measurement": "Activity", "setting": "[4]", "result": "Non-toxic"}, {"measurement": "Activity", "setting": "[5]", "result": "Non-toxic"}, {"measurement": "Activity", "setting": "[6]", "result": 4.53, "unit": "%"}, {"measurement": "Activity", "setting": "[7]", "result": "Toxic"}, {"measurement": "Activity", "setting": "[8]", "result": "Toxic"}, {"measurement": "EC50", "setting": "[9]", "result": 70.2, "unit": "nM"}, {"measurement": "Emax", "setting": "[10]", "result": 100, "unit": "%"}, {"measurement": "Activity", "setting": "[11]", "result": -0.73, "unit": "%"}, {"measurement": "Activity", "setting": "[12]", "result": "Non-toxic"}, {"measurement": "Activity", "setting": "[13]", "result": "Non-toxic"}, {"measurement": "ED50", "setting": "Mus musculus", "result": 2.81, "unit": "mg/kg"}]}]}
